Reference: ChEMBL document CHEMBL3769307, “Selective inhibitors of phosphodiesterases: therapeutic promise for neurodegenerative disorders” (Medchemcomm, 2015)

Legend:
Phosphodiesterase 4 = Phosphodiesterase 4 (Homo sapiens, UniProt P27815+Q08499+Q07343+Q08493); experiment: Inhibition of PDE4 (unknown origin); assay type: protein assay
[1] = target: cGMP-specific 3',5'-cyclic phosphodiesterase (Homo sapiens, UniProt O76074); experiment: Inhibition of PDE5 (unknown origin)
[2] = Inhibition of bovine PDE2; set-up: species or system Bos taurus
[3] = target: 3',5'-cyclic-AMP phosphodiesterase 4D (Homo sapiens, UniProt Q08499); experiment: Inhibition of PDE4D3 (unknown origin)
Chain of 3',5'-cyclic-AMP phosphodiesterase 4D (Q08499 whole entry): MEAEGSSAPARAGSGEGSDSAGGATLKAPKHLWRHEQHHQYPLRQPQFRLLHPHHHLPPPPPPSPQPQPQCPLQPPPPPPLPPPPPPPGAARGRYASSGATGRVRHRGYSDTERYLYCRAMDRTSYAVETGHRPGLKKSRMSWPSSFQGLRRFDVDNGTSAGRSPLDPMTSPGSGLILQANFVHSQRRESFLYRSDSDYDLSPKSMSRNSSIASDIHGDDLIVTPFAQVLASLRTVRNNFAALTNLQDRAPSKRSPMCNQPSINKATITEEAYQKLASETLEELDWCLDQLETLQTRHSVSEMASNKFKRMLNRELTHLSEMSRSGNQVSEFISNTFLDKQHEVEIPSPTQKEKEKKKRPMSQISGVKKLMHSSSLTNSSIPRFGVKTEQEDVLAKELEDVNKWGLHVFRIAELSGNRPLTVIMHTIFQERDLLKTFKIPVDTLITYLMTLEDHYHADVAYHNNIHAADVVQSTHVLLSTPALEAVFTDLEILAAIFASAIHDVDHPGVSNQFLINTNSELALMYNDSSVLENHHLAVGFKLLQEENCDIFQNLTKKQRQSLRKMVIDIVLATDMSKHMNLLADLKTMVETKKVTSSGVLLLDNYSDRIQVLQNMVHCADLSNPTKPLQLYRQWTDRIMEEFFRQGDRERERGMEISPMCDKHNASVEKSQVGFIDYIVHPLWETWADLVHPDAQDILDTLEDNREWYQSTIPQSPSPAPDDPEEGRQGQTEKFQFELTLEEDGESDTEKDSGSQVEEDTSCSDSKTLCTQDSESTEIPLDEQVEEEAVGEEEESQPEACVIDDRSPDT

[4] = Inhibition of PDE9 (unknown origin); set-up: species or system Homo sapiens
[5] = Inhibition of cGMP activated PDE2 (unknown origin); set-up: species or system Homo sapiens
[6] = target: High affinity 3',5'-cyclic-AMP phosphodiesterase 7A (Homo sapiens, UniProt Q13946); experiment: Inhibition of PDE7A (unknown origin)
Chain of High affinity 3',5'-cyclic-AMP phosphodiesterase 7A (Q13946 whole entry): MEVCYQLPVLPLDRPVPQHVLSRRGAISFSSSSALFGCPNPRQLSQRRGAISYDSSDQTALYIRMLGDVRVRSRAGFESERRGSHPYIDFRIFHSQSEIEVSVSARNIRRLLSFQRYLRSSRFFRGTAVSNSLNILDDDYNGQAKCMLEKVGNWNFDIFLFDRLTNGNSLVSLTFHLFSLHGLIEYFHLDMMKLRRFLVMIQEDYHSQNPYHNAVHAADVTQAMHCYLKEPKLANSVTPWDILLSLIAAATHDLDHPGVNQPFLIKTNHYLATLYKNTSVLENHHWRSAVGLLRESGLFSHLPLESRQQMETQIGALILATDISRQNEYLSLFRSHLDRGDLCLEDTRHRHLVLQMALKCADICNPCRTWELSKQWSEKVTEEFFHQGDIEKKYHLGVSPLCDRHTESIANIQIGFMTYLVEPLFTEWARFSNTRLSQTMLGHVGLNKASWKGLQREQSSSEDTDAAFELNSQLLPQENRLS

[7] = Inhibition of cGMP stimulated pig PDE2A; set-up: species or system Sus scrofa

Structure (SMILES) | IC50 (Phosphodiesterase 4) [nM] | further results
CC(C)(Cc1ccc(-c2cccc(-n3cc(C(=O)NC4CC4)c(=O)c4cccnc43)c2)cc1)C(=O)O | 0.88 | –
CC(C)(CC(=O)O)c1ccc(-c2cccc(-n3cc(C(=O)NC4CC4)c(=O)c4cccnc43)c2)cc1 | 0.85 | –
COc1ccc(CNc2c(CO)cnc3c(N(C)C)cc(C#N)cc23)cc1Cl | – | IC50 [1]: 0.27 nM
COc1ccc(CNc2c(CO)cnc3c(NCCN(C)C)cc(C#N)cc23)cc1Cl | – | IC50 [1]: 0.27 nM
CCNc1cc(C#N)cc2c(NCc3ccc(OC)c(Cl)c3)c(CO)cnc12 | – | IC50 [1]: 0.27 nM
COc1ccc(CNc2c(CO)cnc3c(NC4CC4)cc(C#N)cc23)cc1Cl | – | IC50 [1]: 0.27 nM
COc1ccc(CNc2c(CO)cnc3c(N4CCOCC4)cc(C#N)cc23)cc1Cl | – | IC50 [1]: 0.27 nM
COc1ccc(Cc2nc(O)c3c(C)nc([C@@H](CCCc4ccccc4)[C@@H](C)O)n3n2)cc1OC | – | IC50 [2]: 2 nM
O=C(NC1CC1)c1cn(-c2cccc(-c3cccc([C@@H]4C[C@H]4C(=O)O)c3)c2)c2ncccc2c1=O | 0.54 | –
COc1ccc([C@@H]2CNC(=O)[C@@H](Cc3cccc(C)c3)C2)cc1OC1CCCC1 | – | IC50 [3]: 150 nM
C[C@H](Cc1nn2c(-c3ccccc3Cl)ncc2c(=O)[nH]1)C(F)(F)F | – | IC50 [4]: 55 nM
COc1ccc(Cc2nc3c(ncn3C(CCCc3ccccc3)C(C)=O)c(=O)[nH]2)cc1OC (centres undefined) | – | IC50 [5]: 0.6 nM
O=c1c2ccccc2[nH]c(=S)n1-c1ccccc1 | – | IC50 [6]: 5500 nM
O=C(NC1CC1)c1cn(-c2cccc(-c3ccc([C@@H]4C[C@H]4C(=O)O)cc3)c2)c2ncccc2c1=O (relative stereo) | 0.57 | –
O=C(NCC(F)(F)F)c1cn(-c2cccc(-c3ccc([C@@H]4C[C@H]4C(=O)O)cc3)c2)c2ncccc2c1=O (relative stereo) | 0.51 | –
CC1(NC(=O)c2cn(-c3cccc(-c4ccc([C@@H]5C[C@H]5C(=O)O)cc4)c3)c3ncccc3c2=O)CC1 (relative stereo) | 0.58 | –
CC(C)(c1cc(-c2cccc(-c3ccc([C@@H]4C[C@H]4C(=O)O)cc3)c2)c2ncccc2c1)S(C)(=O)=O (relative stereo) | 0.32 | –
O=C(NC1CC1)c1cn(-c2cccc(-c3ccc([C@@H]4C[C@@H]4C(=O)O)c(F)c3)c2)c2ncccc2c1=O (relative stereo) | 0.53 | –
CC(C)(C)NC(=O)c1cn(-c2cccc(-c3ccc([C@@H]4C[C@H]4C(=O)O)cc3)c2)c2ncccc2c1=O (relative stereo) | 32 | –
O=C(NC1CCC1)c1cn(-c2cccc(-c3ccc([C@@H]4C[C@H]4C(=O)O)cc3)c2)c2ncccc2c1=O (relative stereo) | 0.52 | –
O=C(NC1CC1)c1cn(-c2cccc(-c3ccccc3[C@@H]3C[C@H]3C(=O)O)c2)c2ncccc2c1=O (relative stereo) | 4.6 | –
O=C(NCC1CC1)c1cn(-c2cccc(-c3ccc([C@@H]4C[C@H]4C(=O)O)cc3)c2)c2ncccc2c1=O (relative stereo) | 0.35 | –
O=C(NC1CC1)c1cn(-c2cccc(-c3ccc([C@@H]4C[C@@H]4C(=O)O)cc3)c2)c2ncccc2c1=O (relative stereo) | 1.6 | –
O=C(NC1CC1)c1cn(-c2cccc(-c3ccc([C@@H]4C[C@H]4c4nnn[nH]4)cc3)c2)c2ncccc2c1=O (relative stereo) | 0.55 | –
O=C(NC1(O)CC1)c1cn(-c2cccc(-c3ccc([C@@H]4C[C@H]4C(=O)O)cc3)c2)c2ncccc2c1=O (relative stereo) | 17 | –
CCCCCC[C@H]([C@H](C)O)n1cnc2c(N)ncnc21 (relative stereo) [(+)-EHNA] | 1700 | IC50 [5]: 700 nM; IC50 [7]: 2000 nM
O=C(NC1CC1)c1cn(-c2cccc(C#Cc3ccc[n+]([O-])c3)c2)c2ncccc2c1=O [MK-0873] | 5.1 | –
